≈ marks a conversion by molar mass, not a printed value. Calls of active or inactive are those of the source. No cut-off for these calls is given here.
Experiments:
[1] = tested on: Mycobacterium tuberculosis; experiment: Inhibition of oleate production in Mycobacterium bovis BCG; type: functional, variant bovis BCG; conditions: for inhibition: variant bovis BCG
[2] = tested on: Mycobacterium tuberculosis; experiment: Antibacterial activity against Mycobacterium bovis BCG; type: functional; conditions: variant bovis BCG

CCCCOc1ccc(NC(=S)Nc2ccc(OCCCC)cc2)cc1
Inhibition [1]: 94.25%
MIC99 [2]: 0.5 µg/mL (≈ 1.34 µM)

CCCSc1ccc(NC(=S)Nc2ccc(Cc3ccccc3)cc2)cc1
inhibition [1]: inactive
MIC99 [2]: 1.75 µg/mL (≈ 4.46 µM)

CC(C)COc1ccc(NC(=S)Nc2ccc(OCC(C)C)cc2)cc1
Inhibition [1]: 51.62%
MIC99 [2]: 0.9 µg/mL (≈ 2.42 µM)

CCCCOc1ccc(NC(=S)Nc2ccc(OCC(C)C)cc2)cc1
Inhibition [1]: 63.99%
MIC99 [2]: 0.6 µg/mL (≈ 1.61 µM)

CC(C)CCOc1ccc(NC(=S)Nc2ccc(Cc3ccccc3)cc2)cc1
Inhibition [1]: 48.83%
MIC99 [2]: 1.1 µg/mL (≈ 2.72 µM)

CC(C)CCOc1ccc(NC(=S)Nc2ccc(OCCC(C)C)cc2)cc1 [TIOCARLIDE]
Inhibition [1]: 61.02%
MIC99 [2]: 1.1 µg/mL (≈ 2.75 µM)

CCCCOc1ccc(NC(=S)Nc2ccc(OCCC(C)C)cc2)cc1
Inhibition [1]: 79.96%
MIC99 [2]: 0.4 µg/mL (≈ 1.03 µM)

CC(C)CCOc1ccc(NC(=S)Nc2ccc(OCC(C)C)cc2)cc1
Inhibition [1]: 19.24%
MIC99 [2]: 0.9 µg/mL (≈ 2.33 µM)

CCCCOc1ccc(NC(=S)Nc2ccc(Cc3ccccc3)cc2)cc1
Inhibition [1]: 66.15%
MIC99 [2]: 1.5 µg/mL (≈ 3.84 µM)

CCCCc1ccc(NC(=S)Nc2ccc(CCCC)cc2)cc1
inhibition [1]: inactive
MIC99 [2]: 0.075 µg/mL (≈ 0.22 µM)

CCCCOc1ccc(NC(=S)Nc2ccc(CCCC)cc2)cc1
inhibition [1]: inactive
MIC99 [2]: 0.7 µg/mL (≈ 1.96 µM)

CCCSc1ccc(NC(=S)Nc2ccc(OCCC(C)C)cc2)cc1
Inhibition [1]: 53.32%
MIC99 [2]: 0.5 µg/mL (≈ 1.29 µM)

CC(C)CSc1ccc(NC(=S)Nc2ccc(SCC(C)C)cc2)cc1
inhibition [1]: inactive
MIC99 [2]: 0.6 µg/mL (≈ 1.48 µM)

CCCCc1ccc(NC(=S)Nc2ccc(OCCC)cc2)cc1
inhibition [1]: inactive
MIC99 [2]: 0.06 µg/mL (≈ 0.175 µM)

CCCCOc1ccc(NC(=S)Nc2ccc(SCC(C)C)cc2)cc1
Inhibition [1]: 17.75%
MIC99 [2]: 0.7 µg/mL (≈ 1.8 µM)

CCCOc1ccc(NC(=S)Nc2ccc(OCCC)cc2)cc1
Inhibition [1]: 90.76%
MIC99 [2]: 0.5 µg/mL (≈ 1.45 µM)

CCCCc1ccc(NC(=S)Nc2ccc(OCCC(C)C)cc2)cc1
Inhibition [1]: 14.82%
MIC99 [2]: 0.6 µg/mL (≈ 1.62 µM)

CCCCOc1ccc(NC(=S)Nc2ccc(SCCC)cc2)cc1
inhibition [1]: inactive
MIC99 [2]: 0.06 µg/mL (≈ 0.16 µM)

Reference: ChEMBL document CHEMBL1146913, “Symmetrical and unsymmetrical analogues of isoxyl; active agents against Mycobacterium tuberculosis” (2006)
